The values below come from patent US11608335B2, “Somatostatin modulators and uses thereof” (CRINETICS PHARMACEUTICALS, INC., priority 2018, dated 2023).

Structures are written as SMILES. pEC50: −log10 of the molar value. Where only a bound is given, the exact number is not on record here.

The first experiment deals with human somatostatin receptor subtype 5 (Homo sapiens, UniProt P35346). Briefly: cAMP assay for SST5R (inhibition of cAMP via human SST5 receptor).
human somatostatin receptor subtype 5, sequence (P35346 whole entry): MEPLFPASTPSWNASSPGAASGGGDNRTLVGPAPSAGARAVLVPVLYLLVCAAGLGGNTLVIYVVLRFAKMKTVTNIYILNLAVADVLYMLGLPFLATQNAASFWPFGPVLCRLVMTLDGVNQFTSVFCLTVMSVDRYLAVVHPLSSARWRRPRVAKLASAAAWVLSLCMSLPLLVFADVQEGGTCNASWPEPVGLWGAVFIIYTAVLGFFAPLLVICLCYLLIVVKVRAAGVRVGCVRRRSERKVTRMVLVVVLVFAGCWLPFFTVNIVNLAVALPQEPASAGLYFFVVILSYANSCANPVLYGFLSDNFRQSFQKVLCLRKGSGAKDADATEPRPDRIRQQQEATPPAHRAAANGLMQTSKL
Details: not given
For orientation: cAMP levels reflect the balance of adenylyl cyclase and phosphodiesterase activity.
In general, pEC50 refers to the EC50 on a negative log10 scale, so that one unit is a factor of ten. A lower pEC50 goes with a high EC50. For `Cn1c(-c2cncc(-c3cc(F)cc(C#N)c3)c2N2CC[C@H](N)C2)nc2ccccc21` [Compound 2-110, 3-{4-[(3S)-3-aminopyrrolidin-1-yl]-5-(1-methyl-1H-1,3-benzodiazol-2-yl)pyridin-3-yl}-5-fluorobenzonitrile], the pEC50 is 7.00 to 8.00.

In turn, `NC(=O)c1cc(-c2cncc(-c3nc4c(F)ccc(F)c4[nH]3)c2N2CC[C@H](N)C2)ccc1F` [Compound 2-61, 5-{4-[(3S)-3-aminopyrrolidin-1-yl]-5-(4,7-difluoro-1H-1,3-benzodiazol-2-yl)pyridin-3-yl}-2-fluorobenzamide] showed a negative-log EC50 (pEC50) of 7.00 to 8.00.

Molecule `NCC1CN(c2c(-c3cc(F)cc(F)c3)cncc2-c2nc3cc(F)cc(F)c3[nH]2)C1` [Compound 1-21, 1-{1-[3-(4,6-difluoro-1H-1,3-benzodiazol-2-yl)-5-(3,5-difluorophenyl)pyridin-4-yl]azetidin-3-yl}methanamine] had a negative logarithm of the EC50 (pEC50) greater than 8.00.

Regarding `N#Cc1cc(-c2cncc(-c3nc4cccc(Cl)c4[nH]3)c2N2CC[C@H](N)C2)ccn1` [Compound 2-161, 4-[(3S)-3-aminopyrrolidin-1-yl]-5-(4-chloro-1H-1,3-benzodiazol-2-yl)-[3,4′-bipyridine]-2′-carbonitrile], the negative logarithm of the EC50 (pEC50) was greater than 8.00.

With `N#Cc1ccc(-c2cncc(-c3nc4c(F)cccc4[nH]3)c2N2CC[C@H](N)C2)cc1F` [Compound 2-35, 4-{4-[(3S)-3-aminopyrrolidin-1-yl]-5-(4-fluoro-1H-1,3-benzodiazol-2-yl)pyridin-3-yl}-2-fluorobenzonitrile], the pEC50 was 7.00 to 8.00.

For `Cc1cc(F)cc(-c2cncc(-c3nc4cc(C#N)c(F)cc4[nH]3)c2N2CC(CN)C2)c1` [Compound 1-17, 2-{4-[3-(aminomethyl)azetidin-1-yl]-5-(3-fluoro-5-methylphenyl)pyridin-3-yl}-6-fluoro-1H-1,3-benzodiazole-5-carbonitrile], the pEC50 was 6.00 to 7.00.

Consider `CCOc1ccc(-c2cncc(-c3nc4c(F)cc(F)cc4[nH]3)c2N2CC(C(C)N)C2)cc1F` (centres unmarked) [Compound 1-72, 1-{1-[3-(4,6-difluoro-1H-1,3-benzodiazol-2-yl)-5-(4-ethoxy-3-fluorophenyl)pyridin-4-yl]azetidin-3-yl}ethan-1-amine], for which the negative-log EC50 (pEC50) was 7.00 to 8.00.

Turning to `Cc1cc(C)c2nc(-c3cncc(-c4cccc(C#N)c4)c3N3CC[C@](C)(N)C3)[nH]c2n1` [Compound 2-173, 3-{4-[(3S)-3-amino-3-methylpyrrolidin-1-yl]-5-{5,7-dimethyl-1H-imidazo[4,5-b]pyridin-2-yl}pyridin-3-yl}benzonitrile], the negative-log EC50 (pEC50) is greater than 8.00.

The molecule `Cn1c(-c2cncc(-c3cc(F)cc(C#N)c3)c2N2CC[C@H](N)C2)nc2cccc(Cl)c21` [Compound 2-117, 3-{4-[(3S)-3-aminopyrrolidin-1-yl]-5-(7-chloro-1-methyl-1H-1,3-benzodiazol-2-yl)pyridin-3-yl}-5-fluorobenzonitrile] had a pEC50 of 7.00 to 8.00.

The molecule `C[C@]1(N)CCN(c2c(-c3ccc(F)c(C#N)c3)cncc2-c2nc3ncc(F)cc3[nH]2)C1` [Compound 2-168, 5-{4-[(3S)-3-amino-3-methylpyrrolidin-1-yl]-5-{6-fluoro-1H-imidazo[4,5-b]pyridin-2-yl}pyridin-3-yl}-2-fluorobenzonitrile] gave a pEC50 greater than 8.00.

With `Cc1cccc2cc(-c3cncc(-c4cc(F)cc(C#N)c4)c3N3CC[C@H](N)C3)[nH]c12` [Compound 2-137, 3-{4[(3S)-3-aminopyrrolidin-1-yl]-5-(7-methyl-1H-indol-2-yl)pyridin-3-yl}-5-fluorobenzonitrile], the pEC50 was 7.00 to 8.00.

The molecule `CO/N=C/c1cccc(-c2cncc(-c3nc4cccc(F)c4[nH]3)c2N2CC[C@H](N)C2)c1` [Compound 2-12, (3S)-1-[3-(4-fluoro-1H-1,3-benzodiazol-2-yl)-5-{3-[(methoxyimino)methyl]phenyl}pyridin-4-yl]pyrrolidin-3-amine] showed a pEC50 of 7.00 to 8.00.

With `Cc1cc(F)cc(-c2cncc(-c3nc4cnccc4[nH]3)c2N2CC(CN)C2)c1` [Compound 1-22, 1-{1-[3-(3-fluoro-5-methylphenyl)-5-{3H-imidazo[4,5-c]pyridin-2-yl}pyridin-4-yl]azetidin-3-yl}methanamine], the pEC50 is 6.00 to 7.00.

Molecule `NC(=O)c1cccc(-c2cncc(-c3nc4cccc(F)c4[nH]3)c2N2CC[C@H](N)C2)c1` [Compound 2-85, 3-{4-[(3S)-3-aminopyrrolidin-1-yl]-5-(4-fluoro-1H-1,3-benzodiazol-2-yl)pyridin-3-yl}benzamide] gave a negative logarithm of the EC50 (pEC50) greater than 8.00.

Consider `Cn1c(-c2cncc(-c3cccc(C#N)c3)c2N2CC[C@H](N)C2)nc2c(F)cccc21` [Compound 2-74, 3-{4-[(3S)-3-aminopyrrolidin-1-yl]-5-(4-fluoro-1-methyl-1H-1,3-benzodiazol-2-yl)pyridin-3-yl}benzonitrile], for which the negative-log EC50 (pEC50) is greater than 8.00.

Turning to `N#Cc1c(F)ccc(-c2cncc(-c3nc4cccc(F)c4[nH]3)c2N2CC[C@H](N)C2)c1F` [Compound 2-32, 3-{4-[(3S)-3-aminopyrrolidin-1-yl]-5-(4-fluoro-1H-1,3-benzodiazol-2-yl)pyridin-3-yl}-2,6-difluorobenzonitrile], the negative-log EC50 (pEC50) was greater than 8.00.

Consider `Cc1cc(F)cc(-c2cncc(-c3nc4cc(C#N)ccc4[nH]3)c2N2CC(CN)C2)c1` [Compound 1-8, 2-{4-[3-(aminomethyl)azetidin-1-yl]-5-(3-fluoro-5-methylphenyl)pyridin-3-yl}-1H-1,3-benzodiazole-5-carbonitrile], for which the negative logarithm of the EC50 (pEC50) was 6.00 to 7.00.

Molecule `CNC(=O)c1cccc(-c2cncc(-c3nc4cccc(F)c4[nH]3)c2N2CCC(C)(N)C2)c1` (centres unmarked) [Compound 2-19, 3-[4-(3-amino-3-methylpyrrolidin-1-yl)-5-(4-fluoro-1H-1,3-benzodiazol-2-yl)pyridin-3-yl]-N-methylbenzamide] gave a pEC50 of 7.00 to 8.00.

In the case of `Cn1c(-c2cncc(-c3ccc(F)c(C#N)c3)c2N2CC[C@H](N)C2)nc2cccc(Cl)c21` [Compound 2-133, 5-{4-[(3S)-3-aminopyrrolidin-1-yl]-5-(7-chloro-1-methyl-1H-1,3-benzodiazol-2-yl)pyridin-3-yl}-2-fluorobenzonitrile], the pEC50 was greater than 8.00.

Consider `Cc1cccc2nc(-c3cncc(-c4ccc(Cl)c(C#N)c4)c3N3CC[C@H](N)C3)[nH]c12` [Compound 2-98, 5-{4-[(3S)-3-aminopyrrolidin-1-yl]-5-(4-methyl-1H-1,3-benzodiazol-2-yl)pyridin-3-yl}-2-chlorobenzonitrile], for which the pEC50 is greater than 8.00.

As for `NCC1CN(c2c(-c3nc4cc(F)cc(F)c4[nH]3)cncc2-c2cccc(Cl)c2F)C1` [Compound 1-57, 1-{1-[3-(3-chloro-2-fluorophenyl)-5-(4,6-difluoro-1H-1,3-benzodiazol-2-yl)pyridin-4-yl]azetidin-3-yl}methanamine], the pEC50 was 7.00 to 8.00.

In turn, `COc1ccc(-c2cncc(-c3nc4cccc(F)c4[nH]3)c2N2CC[C@H](N)C2)cc1C(N)=O` [Compound 2-73, 5-{4-[(3S)-3-aminopyrrolidin-1-yl]-5-(4-fluoro-1H-1,3-benzodiazol-2-yl)pyridin-3-yl}-2-methoxybenzamide] showed a pEC50 of less than 6.00.

`N#Cc1ccc2nc(-c3cncc(-c4cc(F)cc(Cl)c4)c3N3CC[C@H](N)C3)[nH]c2c1` [Compound 2-103, 2-{4-[(3S)-3-aminopyrrolidin-1-yl]-5-(3-chloro-5-fluorophenyl)pyridin-3-yl}-1H-1,3-benzodiazole-5-carbonitrile] showed a negative-log EC50 (pEC50) of 7.00 to 8.00.

`Cc1cc(Cl)cc(-c2cncc(-c3nc4cc(F)cc(F)c4[nH]3)c2N2CC(CN)C2)c1` [Compound 1-20, 1-{1-[3-(3-chloro-5-methylphenyl)-5-(4,6-difluoro-1H-1,3-benzodiazol-2-yl)pyridin-4-yl]azetidin-3-yl}methanamine] gave a pEC50 greater than 8.00.

In the case of `Cc1cccc2nc(-c3cncc(-c4ccnc(C(N)=O)c4)c3N3CCC(C)(N)C3)[nH]c12` (centres unmarked) [Compound 2-105, 4-(3-amino-3-methylpyrrolidin-1-yl)-5-(4-methyl-1H-1,3-benzodiazol-2-yl)-[3,4′-bipyridine]-2′-carboxamide], the pEC50 was 7.00 to 8.00.

In turn, `Cc1cc(F)cc(-c2cncc(-c3nc4cc(F)cc(F)c4[nH]3)c2N2CC(O)(CN)C2)c1` [Compound 1-26, 3-(aminomethyl)-1-[3-(4,6-difluoro-1H-1,3-benzodiazol-2-yl)-5-(3-fluoro-5-methylphenyl)pyridin-4-yl]azetidin-3-ol] had a pEC50 of 6.00 to 7.00.

With `Cc1cccc2nc(-c3cncc(-c4cc(F)cc(C(N)=O)c4)c3N3CCC(C)(N)C3)[nH]c12` (centres unmarked) [Compound 2-118, 3-[4-(3-amino-3-methylpyrrolidin-1-yl)-5-(4-methyl-1H-1,3-benzodiazol-2-yl)pyridin-3-yl]-5-fluorobenzamide], the negative logarithm of the EC50 (pEC50) is greater than 8.00.

The molecule `NCC1CN(c2c(-c3nc4cc(F)cc(F)c4[nH]3)cncc2-c2cccc3cc[nH]c23)C1` [Compound 1-36, 1-{1-[3-(4,6-difluoro-1H-1,3-benzodiazol-2-yl)-5-(1H-indol-7-yl)pyridin-4-yl]azetidin-3-yl}methanamine] showed a pEC50 of 7.00 to 8.00.

Turning to `N#Cc1cc(-c2cncc(-c3nc4cccc(C#N)c4[nH]3)c2N2CC[C@H](N)C2)ccc1F` [Compound 2-158, 2-{4-[(3S)-3-aminopyrrolidin-1-yl]-5-(3-cyano-4-fluorophenyl)pyridin-3-yl}-1H-1,3-benzodiazole-4-carbonitrile], the pEC50 was greater than 8.00.

In turn, `N#Cc1cccc(-c2cncc(-c3nc4cccc(F)c4[nH]3)c2N2C[C@@H](N)[C@H](c3ccccc3)C2)c1` (racemic) [Compound 2-56, 3-{4-[trans-3-amino-4-phenylpyrrolidin-1-yl]-5-(4-fluoro-1H-1,3-benzodiazol-2-yl)pyridin-3-yl}benzonitrile] had a pEC50 of 6.00 to 7.00.

For the molecule `N#Cc1c(Cl)cccc1-c1cncc(-c2nc3cccc(F)c3[nH]2)c1N1CC[C@H](N)C1` [Compound 2-47, 2-{4-[(3S)-3-aminopyrrolidin-1-yl]-5-(4-fluoro-1H-1,3-benzodiazol-2-yl)pyridin-3-yl}-6-chlorobenzonitrile], the negative logarithm of the EC50 (pEC50) was greater than 8.00.

The experiment is the same for the next values; noted with them: SST5 over SST2, given as number (comparison compounds).
With `COc1cc(Cl)cc2[nH]c(-c3cncc(-c4cc(C)cc(F)c4)c3N3CCC(N)CC3)nc12`, the “Fold selectivity for SST5 vs SST2” value came out at 0.00004.
